Source: US20250375428A1, “CBL-B INHIBITORS AND ANTI-PD1/ANTI-PD-L1 FOR USE IN THE TREATMENT OF CANCER” (HOTSPOT THERAPEUTICS, INC., priority 2022, published 2025)

Columns and labels:
H22 tumor cells = assay: Subcutaneous H22 murine liver cancer model in female BALB/c mice; assay type: in vivo; parameters: Dunnett's multiple comparisons test Mean Diff.: unit: mm3; settings: for TGI (%): day 12; for Dunnett's multiple comparisons test Mean Diff.: tumor volume
Method: The objective of this pharmacology study was to evaluate the anti-tumor growth efficacy of Compound 85 with in combination with anti-PD1 antibody (BP0146) in the treatment of the subcutaneous H22 murine liver cancer model in female BALB/c mice. Compound 85 test particles were delivered via PO when the average tumor volume reached approximately 80 mm^3. Compound 85 was assessed at 4 different dose levels (2 mpk, 6 mpk, 10 mpk, and 20 mpk for QD) in combination with anti-PD1 antibody (10 mpk, BIW). Tumor volumes and body weight were measured three times per week after the initiation of treatment.
The H22 tumor cells were maintained in vitro with RPMI-1640 medium supplemented with 10% fetal bovine serum at 37° C. in an atmosphere of 5% CO2. Cells in the exponential growth phase were harvested and quantified by cell counter before tumor inoculation.
Each mouse was inoculated subcutaneously in the right front flank region with H22 tumor cells (1×10e6) in 0.1 ml of PBS for tumor development.
After tumor inoculation, the animals were checked daily for morbidity and mortality. During routine monitoring, the animals were checked for any effects of tumor growth and treatments on behavior such as mobility, food and water consumption, body weight gain/loss (Body weights were measured thrice per week after randomization), eye/hair matting and any other abnormalities. Mortality and observed clinical signs were recorded for individual animals in detail.
(§1) Tumor volumes were measured three times per week after randomization in two dimensions using a caliper, and the volume was expressed in mm3 using the formula: V=(L×W×W)/2, where V is tumor volume, L is tumor length (the longest tumor dimension) and W is tumor width (the longest tumor dimension perpendicular to L). Dosing, as well as tumor and body weight measurements, were conducted in a Laminar Flow Cabinet.
Tumor growth inhibition (TGI): TGI % is an indication of antitumor activity, expressed as: TGI (%)=100×(1−T/C). T and C are the mean tumor volume (or weight) of the treated and control groups on a given day.
The treatment was performed for 21 days and the study was terminated on day 20 post dosing initiation.

CT26 tumor cells = assay: Subcutaneous syngeneic colorectal cancer model CT26 in female BALB/c mice; assay type: in vivo, mouse; settings: Compound 29 30 mg/kg p.o. (QD or BID) in combination with anti-PD1 10 mg/kg i.p. BIW; FIG. 3
Method: The objective of this pharmacology study was to evaluate the anti-tumor growth efficacy of Compound 29 with in combination with anti-PD1 antibody (BP0146) or Isotype IgG2a (BP0089) in the treatment of the subcutaneous CT26 murine colorectal cancer model in female BALB/c mice.
Test particles were delivered via PO when the average tumor volume reached approximately 80 mm^3. Test articles was assessed at dose levels as described in Table 6. Tumor volumes and body weight were measured after the initiation of treatment.
The CT26 tumor cells were maintained in vitro with RPMI-1640 medium supplemented with 10% fetal bovine serum at 37° C. in an atmosphere of 5% CO^2 in air. The cells in exponential growth phase was harvested and quantitated by cell counter before tumor inoculation.
Each mouse was inoculated subcutaneously in the right lower flank region with CT26 tumor cells (5×10^5) in 0.1 ml of PBS for tumor development. […]
as §1, with “thrice” for “three times”, “mm^3” for “mm3”, “Dosing, as well as tumor and body weight measurements, were conducted in a Laminar Flow Cabinet.” left out
Tumor growth inhibition (TGI): TGI % is an indication of antitumor activity, and expressed as: TGI (%)=100×(1−T/C). […]

| SMILES | TGI (%) (H22 tumor cells; Compound 85 2 mpk QD p.o. + anti-PD1 10 mpk BIW vs. Vehicle + isotype) | TGI (%) (H22 tumor cells; Compound 85 6 mpk QD p.o. + anti-PD1 10 mpk BIW vs. Vehicle + isotype) | tumor inhibition compared with anti-PD1 alone (H22 tumor cells; Compound 85 10 mpk QD and 20 mpk QD + anti-PD1 combination) | TGI (%) (H22 tumor cells; Compound 85 10 mpk QD p.o. + anti-PD1 10 mpk BIW vs. Vehicle + isotype) | complete regression (H22 tumor cells; Compound 85 20 mpk QD and anti-PD1 combination group, day 20) | TGI (%) (H22 tumor cells; Compound 85 20 mpk QD p.o. + anti-PD1 10 mpk BIW vs. Vehicle + isotype) | benefit in combination with anti-PD1 (H22 tumor cells; Compound 85 + anti-PD1) | anti-tumor efficacy compared to single agent treatment (H22 tumor cells; Compound 85 at 2, 6, 10 and 20 mpk in combination with Anti-PD-1) | tolerability (H22 tumor cells; Compound 85 up to 20 mpk QD in combination with anti-PD1) | Dunnett's multiple comparisons test Mean Diff. (H22 tumor cells; Vehicle + isotype vs. Compound 85 2 mpk QD + anti-PD1) | Dunnett's multiple comparisons test Mean Diff. (H22 tumor cells; Vehicle + isotype vs. Compound 85 6 mpk QD + anti-PD1) | Dunnett's multiple comparisons test Mean Diff. (H22 tumor cells; Vehicle + isotype vs. Compound 85 10 mpk QD + anti-PD1) | Dunnett's multiple comparisons test Mean Diff. (H22 tumor cells; Vehicle + isotype vs. Compound 85 20 mpk QD + anti-PD1) | loss of average body weight (H22 tumor cells; day 2 of treatment, Compound 85 20 mpk QD and anti-PD1 combination) | tumor growth inhibition of CT26 tumors (CT26 tumor cells) |
| --- | --- | --- | --- | --- | --- | --- | --- | --- | --- | --- | --- | --- | --- | --- | --- |
| C[C@H]1CCCN(Cc2cc(C(F)(F)F)c3cn(-c4cccc([C@H](c5nncn5C)C5CCC5)c4)c(=O)n3c2)C1 [Compound 85] | 74.8 | 82.87 | statistically significant increase | 85.2 | One complete regression | 87.73 | additive or synergistic benefit | increased anti-tumor efficacy | No tolerability issue | 2158 | 2391 | 2458 | 2531 | less than 5% |  |
| C[C@H]1CCCN(Cc2cc(C(F)(F)F)c3cn(-c4cccc(C5(Cc6nncn6C)COC5)c4)c(=O)n3c2)C1 [Compound 29] |  |  |  |  |  |  |  |  |  |  |  |  |  |  | further enhanced |
